The target of the assay is T1, KMO mouse enzyme (Mus musculus, UniProt Q91WN4).
T1 construct: KMO enzyme prepared at Evotec from mouse liver (4-6 weeks old) via mitochondria isolation; from tissue; host or cells: mouse liver (4-6 weeks old), mitochondria isolation, prepared at Evotec
The assay is described as follows: KMO mouse enzyme assay: L-Kynurenine hydroxylation to 3-Hydroxy-Kynurenine monitored by LC/MS (MRM). Type of assay: biochemical. Conditions: compound at 10 μM; KMO enzyme from mouse liver mitochondria; read-out: INH.Mouse @ 10 μM. As to the method:
A method of monitoring L-Kynurenine (KYN) hydroxylation to form 3-Hydroxy-Kynurenine (3OH-KYN) by LC/MS is described. Product is quantified by multiple reaction monitoring (MRM method).
• Compound: Stock concentrations: 10 mM in 100% DMSO • Enzyme: KMO enzyme prepared at Evotec from mouse liver (4-6 weeks old) via mitochondria isolation as described in the literature • Substrate: L-Kynurenine (Sigma: Cat# K3750, stock concentration: 10 mM in 100 mM potassium phosphate buffer, pH 7.4) Assay Conditions: […]

T1 sequence (Q91WN4 whole entry): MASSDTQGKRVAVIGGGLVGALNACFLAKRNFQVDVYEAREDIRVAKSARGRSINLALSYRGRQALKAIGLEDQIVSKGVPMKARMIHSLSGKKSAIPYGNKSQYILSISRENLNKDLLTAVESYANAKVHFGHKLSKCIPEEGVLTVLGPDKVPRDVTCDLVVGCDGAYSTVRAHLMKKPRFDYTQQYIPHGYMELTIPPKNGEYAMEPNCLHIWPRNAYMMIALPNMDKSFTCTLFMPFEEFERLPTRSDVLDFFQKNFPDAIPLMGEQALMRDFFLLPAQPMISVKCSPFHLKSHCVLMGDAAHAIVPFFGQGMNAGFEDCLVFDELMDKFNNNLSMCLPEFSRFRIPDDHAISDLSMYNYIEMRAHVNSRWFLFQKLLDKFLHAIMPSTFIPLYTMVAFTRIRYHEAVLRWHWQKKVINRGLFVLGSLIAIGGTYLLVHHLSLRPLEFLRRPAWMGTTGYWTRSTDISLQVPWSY

For the compound `O=C(Nc1ccncc1)c1cc(-c2ccc(Cl)c(Cl)c2)ncn1` [6-(3,4-Dichloro-phenyl)-pyrimidine-4-carboxylic acid pyridin-4-ylamide], the inhibition at 10 µM was 90.1%.
As for `O=C(Nc1cncnc1)c1cc(-c2ccc(Cl)c(Cl)c2)ncn1` [6-(3,4-Dichloro-phenyl)-pyrimidine-4-carboxylic acid pyrimidin-5-ylamide], the figure is 95.5%; as for `O=C(Nc1nccs1)c1cc(-c2ccc(Cl)c(Cl)c2)ncn1` [6-(3,4-Dichloro-phenyl)-pyrimidine-4-carboxylic acid thiazol-2-ylamide], 83.7%.
The value for `COC(=O)c1cc(-c2ccc(F)c(F)c2)ncn1` [6-(3,4-Difluoro-phenyl)-pyrimidine-4-carboxylic acid methyl ester] was 100%; that for `O=C(Nc1cccnc1)c1cc(-c2ccc(F)c(F)c2)ncn1` [6-(3,4-Difluoro-phenyl)-pyrimidine-4-carboxylic acid pyridin-3-ylamide] was 84.7%.
Turning to `O=C(Nc1cncnc1)c1cc(-c2ccc(F)c(F)c2)ncn1` [6-(3,4-Difluoro-phenyl)-pyrimidine-4-carboxylic acid pyrimidin-5-ylamide], the inhibition at 10 µM was 100%.
As for `COc1cncc(NC(=O)c2cc(-c3cc(Cl)cc(Cl)c3)ncn2)c1` [6-(3,5-Dichloro-phenyl)-pyrimidine-4-carboxylic acid (5-methoxy-pyridin-3-yl)-amide], the figure is 54.8%; as for `COC(=O)c1cc(-c2cc(Cl)cc(Cl)c2)ncn1` [6-(3,5-Dichloro-phenyl)-pyrimidine-4-carboxylic acid methyl ester], 101%.
Turning to `O=C(Nc1ccccc1)c1cc(-c2cc(Cl)cc(Cl)c2)ncn1` [6-(3,5-Dichloro-phenyl)-pyrimidine-4-carboxylic acid phenylamide], the inhibition at 10 µM was determined as 77.6%.
As for `O=C(Nc1cccnc1)c1cc(-c2cc(Cl)cc(Cl)c2)ncn1` [6-(3,5-Dichloro-phenyl)-pyrimidine-4-carboxylic acid pyridin-3-ylamide], the figure is 72.2%; as for `COC(=O)c1cc(-c2cccc(Cl)c2F)ncn1` [6-(3-Chloro-2-fluoro-phenyl)-pyrimidine-4-carboxylic acid methyl ester], 100%; as for `COC(=O)c1cc(-c2ccc(F)c(Cl)c2)ncn1` [6-(3-Chloro-4-fluoro-phenyl)-pyrimidine-4-carboxylic acid methyl ester], 100%.
With `COC(=O)c1cc(-c2ccc(OC)c(Cl)c2)ncn1` [6-(3-Chloro-4-methoxy-phenyl)-pyrimidine-4-carboxylic acid methyl ester], the inhibition at 10 µM was determined as 100%.
The value for `COC(=O)c1cc(-c2ccc(C(F)(F)F)c(Cl)c2)ncn1` [6-(3-Chloro-4-trifluoromethyl-phenyl)-pyrimidine-4-carboxylic acid methyl ester] was 100%.
The value for `O=C(Nc1cccnc1)c1cc(-c2ccc(C(F)(F)F)c(Cl)c2)ncn1` [6-(3-Chloro-4-trifluoromethyl-phenyl)-pyrimidine-4-carboxylic acid pyridin-3-ylamide] was 48.3%.
Take `COC(=O)c1cc(-c2cccc(Cl)c2)nc(C)n1` [6-(3-Chloro-phenyl)-2-methyl-pyrimidine-4-carboxylic acid methyl ester]: the inhibition at 10 µM worked out at 100%.
As to `Cc1nc(C(=O)O)cc(-c2cccc(Cl)c2)n1` [6-(3-Chloro-phenyl)-2-methyl-pyrimidine-4-carboxylic acid], the inhibition at 10 µM was 100%.
As to `Cn1ccc(NC(=O)c2cc(-c3cccc(Cl)c3)ncn2)n1` [6-(3-Chloro-phenyl)-pyrimidine-4-carboxylic acid (1-methyl-1H-pyrazol-3-yl)-amide], the inhibition at 10 µM was found to be 100%.
As for `Cn1cc(NC(=O)c2cc(-c3cccc(Cl)c3)ncn2)cn1` [6-(3-Chloro-phenyl)-pyrimidine-4-carboxylic acid (1-methyl-1H-pyrazol-4-yl)-amide], the figure is 100%; as for `O=C(Nc1ccc2c(c1)OC(F)(F)O2)c1cc(-c2cccc(Cl)c2)ncn1` [6-(3-Chloro-phenyl)-pyrimidine-4-carboxylic acid (2,2-difluoro-benzo[1,3]dioxol-5-yl)-amide], 97.7%.
Take `CN(C(=O)c1cc(-c2cccc(Cl)c2)ncn1)c1ccc2c(c1)OC(F)(F)O2` [6-(3-Chloro-phenyl)-pyrimidine-4-carboxylic acid (2,2-difluoro-benzo[1,3]dioxol-5-yl)-methyl-amide]: the inhibition at 10 µM is 98.7%.
As for `O=C(NCCO)c1cc(-c2cccc(Cl)c2)ncn1` [6-(3-Chloro-phenyl)-pyrimidine-4-carboxylic acid (2-hydroxy-ethyl)-amide], the inhibition at 10 µM turned out to be 95.8%.
As for `COc1ccccc1NC(=O)c1cc(-c2cccc(Cl)c2)ncn1` [6-(3-Chloro-phenyl)-pyrimidine-4-carboxylic acid (2-methoxy-phenyl)-amide], the figure is 100%; as for `Cc1ncccc1NC(=O)c1cc(-c2cccc(Cl)c2)ncn1` [6-(3-Chloro-phenyl)-pyrimidine-4-carboxylic acid (2-methyl-pyridin-3-yl)-amide], 97.8%; as for `Cc1noc(C)c1NC(=O)c1cc(-c2cccc(Cl)c2)ncn1` [6-(3-Chloro-phenyl)-pyrimidine-4-carboxylic acid (3,5-dimethyl-isoxazol-4-yl)-amide], 79%.
With `COc1cccc(NC(=O)c2cc(-c3cccc(Cl)c3)ncn2)c1` [6-(3-Chloro-phenyl)-pyrimidine-4-carboxylic acid (3-methoxy-phenyl)-amide], the inhibition at 10 µM was determined as 97.1%.
As for `Cc1nsc(NC(=O)c2cc(-c3cccc(Cl)c3)ncn2)n1` [6-(3-Chloro-phenyl)-pyrimidine-4-carboxylic acid (3-methyl-[1,2,4]thiadiazol-5-yl)-amide], the figure is 85.4%; as for `Cc1cc(NC(=O)c2cc(-c3cccc(Cl)c3)ncn2)on1` [6-(3-Chloro-phenyl)-pyrimidine-4-carboxylic acid (3-methyl-isoxazol-5-yl)-amide], 100%.
As for `O=C(Nc1ccc(F)cc1)c1cc(-c2cccc(Cl)c2)ncn1` [6-(3-Chloro-phenyl)-pyrimidine-4-carboxylic acid (4-fluoro-phenyl)-amide], the figure is 98.9%.
The value for `COc1ccc(NC(=O)c2cc(-c3cccc(Cl)c3)ncn2)cc1` [6-(3-Chloro-phenyl)-pyrimidine-4-carboxylic acid (4-methoxy-phenyl)-amide] was 100%.
As for `COc1ccc(N(C)C(=O)c2cc(-c3cccc(Cl)c3)ncn2)cc1` [6-(3-Chloro-phenyl)-pyrimidine-4-carboxylic acid (4-methoxy-phenyl)-methyl-amide], the inhibition at 10 µM stood at 100%.
The value for `COc1ccncc1NC(=O)c1cc(-c2cccc(Cl)c2)ncn1` [6-(3-Chloro-phenyl)-pyrimidine-4-carboxylic acid (4-methoxy-pyridin-3-yl)-amide] was 91%; that for `O=C(Nc1ccc(N2CCOCC2)cc1)c1cc(-c2cccc(Cl)c2)ncn1` [6-(3-Chloro-phenyl)-pyrimidine-4-carboxylic acid (4-morpholin-4-yl-phenyl)-amide] was 93.6%.
The value for `COc1cncc(NC(=O)c2cc(-c3cccc(Cl)c3)ncn2)c1` [6-(3-Chloro-phenyl)-pyrimidine-4-carboxylic acid (5-methoxy-pyridin-3-yl)-amide] was 100%; that for `Cc1nnc(NC(=O)c2cc(-c3cccc(Cl)c3)ncn2)o1` [6-(3-Chloro-phenyl)-pyrimidine-4-carboxylic acid (5-methyl-[1,3,4]oxadiazol-2-yl)-amide] was 100%.
The value for `COc1ccc(NC(=O)c2cc(-c3cccc(Cl)c3)ncn2)cn1` [6-(3-Chloro-phenyl)-pyrimidine-4-carboxylic acid (6-methoxy-pyridin-3-yl)-amide] was 93.4%.
`Cc1ccc(NC(=O)c2cc(-c3cccc(Cl)c3)ncn2)cn1` [6-(3-Chloro-phenyl)-pyrimidine-4-carboxylic acid (6-methyl-pyridin-3-yl)-amide]: the inhibition at 10 µM was determined as 85.3%.
The value for `O=C(Nc1ccc(C(F)(F)F)nc1)c1cc(-c2cccc(Cl)c2)ncn1` [6-(3-Chloro-phenyl)-pyrimidine-4-carboxylic acid (6-trifluoromethyl-pyridin-3-yl)-amide] was 89.1%; that for `C[C@@H](NC(=O)c1cc(-c2cccc(Cl)c2)ncn1)c1ccccc1` [6-(3-Chloro-phenyl)-pyrimidine-4-carboxylic acid ((R)-1-phenyl-ethyl)-amide] was 99.2%; that for `C[C@@H](O)CNC(=O)c1cc(-c2cccc(Cl)c2)ncn1` [6-(3-Chloro-phenyl)-pyrimidine-4-carboxylic acid ((R)-2-hydroxy-propyl)-amide] was 74.3%.
The value for `C[C@H](NC(=O)c1cc(-c2cccc(Cl)c2)ncn1)c1ccccc1` [6-(3-Chloro-phenyl)-pyrimidine-4-carboxylic acid ((S)-1-phenyl-ethyl)-amide] was 99.8%; that for `C[C@H](O)CNC(=O)c1cc(-c2cccc(Cl)c2)ncn1` [6-(3-Chloro-phenyl)-pyrimidine-4-carboxylic acid ((S)-2-hydroxy-propyl)-amide] was 87.3%; that for `O=C(NCc1cccnc1)c1cc(-c2cccc(Cl)c2)ncn1` [6-(3-Chloro-phenyl)-pyrimidine-4-carboxylic acid (pyridin-3-ylmethyl)-amide] was 96.7%.

The record behind these values is patent publication US9145373B2, “Certain kynurenine-3-monooxygenase inhibitors, pharmaceutical compositions, and methods of use thereof” (CHDI FOUNDATION, INC., priority 2008, dated 2015).
